The text below walks through data of ChEMBL document CHEMBL1201862, “PubChem BioAssay data set” (2004).

Each structure is given as a SMILES string.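 All cell lines were grown in 96-well plates and treated with compound for 48 hours. Here, GI50 denotes the concentration required for 50% inhibition of growth.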 The source made the active and inactive calls. Cut-off read from the data, not from the text of the source: active = GI50 up to about 1.1 µM and inactive = higher.

What all share (assay): NCI tumour cell line growth inhibition, 48 h
The subject of assay [1] is 786-0.
Assay [2] concerns UACC-62.
The test system of assay [3] is SR.
Assay [4] relates to HCT-15.
The subject of assay [5] is K562.
Assay [6] concerns COLO 205.
In assay [7] the test system is M14.
In assay [8] the test system is UACC-257.
Assay [9] has as its system TK-10.
The subject of assay [10] is SW-620.
Assay [11] has as its system OVCAR-5.
In assay [12] the test system is MDA-N.
Assay [13] has as its system OVCAR-4.
The test system of assay [14] is SK-MEL-5.
The subject of assay [15] is RXF 393.
Assay [16] relates to NCI-H226.
Assay [17] has as its system DU-145.
The subject of assay [18] is PC-3.

`S=C(Nc1ccc2cn[nH]c2c1)Nc1ccc2cn[nH]c2c1`: the GI50 in assay [1] was 98.2 µM (inactive); in [2], 48.5 µM (inactive); in assay [3] it was 25.8 µM (inactive); in assay [4], 63.5 µM; in assay [5], 61.7 µM (inactive); in [6], 44.8 µM (inactive). Moreover, the GI50 in assay [7] is > 100 µM (inactive); in assay [8] it was 96.6 µM (inactive); in [9] it was 48.1 µM (inactive); in assay [10], > 100 µM (inactive); in assay [11], 95.5 µM (inactive); in assay [12] it was 57.4 µM (inactive). Also, the GI50 was > 100 µM (inactive) in [13]; 45.1 µM (inactive) in assay [14]; > 100 µM (inactive) in [15]; 44.1 µM (inactive) in assay [16]; > 100 µM (inactive) in assay [17]; 48.5 µM (inactive) in assay [18].

On to `Cc1nc(Nc2ccc(Cl)cc2Cl)sc1C(=O)Nc1ccccc1`, for which the GI50 in [1] is 53.6 µM (inactive); in assay [2], 82.6 µM (inactive); in assay [3], 28.2 µM (inactive); in assay [4], 74.1 µM; in [5], 24 µM (inactive); in [6], 26.2 µM (inactive). The GI50 in assay [7] is 80.9 µM (inactive); in assay [8], 61.4 µM (inactive); in assay [9] it was 57.4 µM (inactive); in assay [10], > 100 µM (inactive); in [11], > 100 µM (inactive); in assay [12], 81.3 µM (inactive). Moreover, the GI50 in assay [13] is 73.6 µM (inactive); in assay [14], 37.9 µM (inactive); in [15], 33.3 µM (inactive); in [16], < 0.01 µM (active); in assay [17], > 100 µM (inactive); in assay [18], 31 µM (inactive).

Regarding `Clc1ccccc1C(Nc1ncccn1)Nc1ncccn1`, the GI50 in assay [1] is > 100 µM (inactive); in assay [2] it was > 100 µM (inactive); in [3] it was 8.15 µM (inactive); in assay [4] it was above 100 µM; in [5] it was > 100 µM (inactive); in assay [6], > 100 µM (inactive). Also, the GI50 in assay [7], in assay [8], in assay [9], in assay [10], in [11] and in assay [12] was > 100 µM (inactive) each time. Besides, the GI50 in assay [13], in [14], in assay [15], in [16], in [17] and in assay [18] was > 100 µM (inactive) each time.

For the molecule `C[C@]12CC[C@H]3[C@@H](CCC4=C(Br)C(=O)C=C[C@@]43O)[C@@H]1CCC2=O`, the GI50 was 24.9 µM (inactive) in [1]; 32.4 µM (inactive) in assay [2]; 8.34 µM (inactive) in [3]; 15.6 µM in [4]; 32.7 µM (inactive) in [5]; 61 µM (inactive) in [6]. Besides, the GI50 in [7] was 39.3 µM (inactive); in assay [8] it was 16.9 µM (inactive); in assay [9], 36.6 µM (inactive); in assay [10], 26.8 µM (inactive); in [11] it was 61 µM (inactive); in [12], 30.6 µM (inactive). For the same molecule, the GI50 was 33.3 µM (inactive) in [13]; 28.2 µM (inactive) in assay [14]; 21.1 µM (inactive) in assay [15]; > 100 µM (inactive) in assay [16]; 20.9 µM (inactive) in [17]; 37.8 µM (inactive) in assay [18].

For the molecule `Clc1ccc(/C=C/c2nc(-c3ccc(Cl)cc3)cn3c2nc2ccccc23)cc1`, the GI50 was > 100 µM (inactive) in assay [1]; > 100 µM (inactive) in assay [2]; > 100 µM (inactive) in assay [3]; above 100 µM in [4]; > 100 µM (inactive) in assay [5]; > 100 µM (inactive) in assay [6]. Besides, the GI50 in assay [7], in assay [8], in assay [9], in assay [10], in [11] and in assay [12] was > 100 µM (inactive) in each case. In addition, the GI50 in assay [13], in assay [14], in assay [15], in assay [16], in [17] and in assay [18] was > 100 µM (inactive) in each case.

Turning to `CCOC(=O)NNC(=O)NCCNC(=O)NNC(=O)OCC`, the GI50 was > 100 µM (inactive) in assay [1]; > 100 µM (inactive) in assay [2]; > 100 µM (inactive) in assay [3]; above 100 µM in assay [4]; > 100 µM (inactive) in assay [5]; > 100 µM (inactive) in [6]. The GI50 is > 100 µM (inactive) in [7]; > 100 µM (inactive) in assay [8]; > 100 µM (inactive) in assay [9]; > 100 µM (inactive) in assay [10]; 69.3 µM (inactive) in [11]; > 100 µM (inactive) in assay [12]. Moreover, the GI50 in assay [13] was > 100 µM (inactive); in assay [14], > 100 µM (inactive); in [15], > 100 µM (inactive); in assay [16] it was 98.6 µM (inactive); in assay [17], > 100 µM (inactive); in assay [18] it was > 100 µM (inactive).

Take `CC1(C)[C@@H](Cn2cnc3c(N)ncnc32)CC[C@@]1(C)CO`: the GI50 in [1] is > 100 µM (inactive); in assay [2], 32 µM (inactive); in assay [3], 11.9 µM (inactive); in assay [4], 51.1 µM; in assay [5] it was 17.3 µM (inactive); in assay [6], 71.9 µM (inactive). Besides, the GI50 was > 100 µM (inactive) in assay [7]; 67.1 µM (inactive) in assay [8]; > 100 µM (inactive) in [9]; 82.8 µM (inactive) in assay [10]; 83.4 µM (inactive) in assay [11]; 50 µM (inactive) in assay [12]. Moreover, the GI50 was > 100 µM (inactive) in assay [13]; 60.7 µM (inactive) in assay [14]; > 100 µM (inactive) in [15]; 40.3 µM (inactive) in [16]; > 100 µM (inactive) in [17]; 66.2 µM (inactive) in [18].

For `OC(C#CCN1CCCC1)(c1ccccc1)c1ccccc1Cl` (stereo not drawn), the GI50 is > 10 µM (inactive) in assay [1]; 27.2 µM (inactive) in assay [2]; 36.3 µM (inactive) in assay [3]; 68.5 µM in [4]; 30.8 µM (inactive) in assay [5]; 12.5 µM (inactive) in [6]. Moreover, the GI50 was 20.7 µM (inactive) in assay [8]; 50.8 µM (inactive) in assay [9]; 18.5 µM (inactive) in [10]; > 100 µM (inactive) in [11]; 23 µM (inactive) in assay [12]; 31 µM (inactive) in [13]. Besides, the GI50 is 17.7 µM (inactive) in [14]; 46.8 µM (inactive) in assay [15]; 80.7 µM (inactive) in assay [16]; > 100 µM (inactive) in [17]; 27.8 µM (inactive) in [18].
